# Data taken from patent US20190032104A1, “RAPID ANTIMICROBIAL SUSCEPTIBILITY TESTING USING HIGH-SENSITIVITY DIRECT DETECTION METHODS” (T2 Biosystems, Inc., priority 2016, published 2019).
# Columns and labels:
# S. aureus isolate [1] = assay: agar-based antimicrobial gradient test (e.g., ETEST); type: cell-based; conditions: S. aureus isolate from subject's blood, Example 3
# Description: (§1) A blood sample is obtained from a subject suspected to be suffering from bacteremia. A portion of the blood sample is used to inoculate a blood culture bottle (e.g., a BD BACTEC™ aerobic blood culture bottle). The blood culture bottles are incubated as recommended by the manufacturer. In parallel, an aliquot of the blood sample obtained from the patient is subjected to a T2MR-based detection method, for example, the method described in Example 22 of WO 2012/054639 in conjunction with a T2Dx® device. In this example, the T2MR-based method identifies S. aureus as being present in the blood sample within 3 hours from the start of the assay.
# (§2) Next, based on the identification of S. aureus in the blood sample, the blood culture bottle is sampled by lysis filtration or lysis centrifugation followed by plating of the cell pellet on to chromogenic media (e.g., CHROMAGAR™ MRSA (Chromagar)) or directly on to an agar-based antimicrobial gradient test (e.g., an ETEST®) in order to test whether the S. aureus isolate from the subject's blood is sensitive to oxacillin, vancomycin, trimethoprim-sulfamethoxazole (BACTRIM™), doxycycline, daptomycin, and linezolid. Additionally, T2MR-based real-time PCR is performed as described, for example, in Example 19 of WO 2012/054639, is used to determine the expression level of antibiotic resistance markers such as mecA. […]
# S. aureus = assay: administration to the subject with bacteremia (S. aureus); type: in vivo, human
# S. aureus isolate [2] = assay: T2MR-based AST with direct cell detection by vancomycin-conjugated magnetic nanoparticles; conditions: media with pre-determined levels of agent, Example 6
# Description: as §1, with “In one such example, a blood” for “A blood”
# Based on the T2MR-based detection and identification of S. aureus in the subject's blood, a subsequent blood draw is taken directly to media that contain either no antimicrobial agents or pre-determined levels of oxacillin, vancomycin, trimethoprim-sulfamethoxazole (BACTRIM™), doxycycline, daptomycin, or linezolid. Aliquots are taken from these media at time intervals, and the aliquots are subjected to T2MR-based direct detection of S. aureus cells, as described, for example, in Example 4 of International Patent Publication No. WO 2012/129281. S. aureus cells are detected by labeling with magnetic nanoparticles. […]
# S. aureus isolate [3] = assay: growth on chromogenic media (e.g., CHROMAGAR MRSA); type: cell-based; conditions: Example 3
# Description: as §1, §2
# Candida albicans = assay: administration to the subject with Candidemia (Candida albicans); type: in vivo, human
# Candida albicans isolate = assay: AST testing of isolated colonies, agar-based AST method (e.g., ETEST) or full panel AST device (e.g., VITEK 2); type: cell-based; conditions: Candida albicans isolate from subject's blood, Example 2
# Description: as §1, with “Candidemia.” for “bacteremia.”, “as” for “the method”, “1 above.” for “22 of WO 2012/054639 in conjunction with a T2Dx® device.”, “Candida albicans” for “S. aureus”, “sample.” for “sample within 3 hours from the start of the assay.”
# Next, based on the identification of Candida albicans in the blood sample, the blood culture bottle is sampled by lysis filtration or lysis centrifugation followed by plating of the cell pellet on to Samouraud Glucose media, thereby encouraging growth of Candida albicans and early growth of the isolated colonies. These colonies are subjected to AST testing, either using an agar-based AST method (e.g., ETEST®) or a full panel AST device (e.g., VITEK® 2). Several appropriate anti-fungal drugs are tested, e.g., fluconazole, itraconazole, amphotericin B, micafungin, voriconazole, and caspofungin.
# C. glabrata isolate = assay: T2MR-based AST, real-time PCR of housekeeping gene as proxy for growth; type: cell-based, Candida glabrata; conditions: media with pre-determined levels of agent, Example 4
# Description: A blood sample is obtained from a subject suspected to be suffering from Candidemia. The blood sample obtained from the patient is subjected to a T2MR-based detection method, for example, the method described in Example 22 of WO 2012/054639 in conjunction with a T2Dx® device. Briefly, PCR is performed using a forward primer that includes the oligonucleotide sequence 5′-GGCATGCCTGTTTGAGCGTC-3′ (SEQ ID NO: 13) and a reverse primer that includes the oligonucleotide sequence 5′-GCTTATTGATATGCTTAAGTTCAGCGGGT-3′ (SEQ ID NO: 14). Magnetic particles conjugated individually to the capture probes described in Table 1 are used to test for the presence of Candida albicans, Candida glabrata, Candida krusei, Candida parapsilosis, and Candida tropicalis. In this example, Candida glabrata is identified as being present in the subject's blood sample within 3 h from the start of the assay.
# Based on the T2MR-based detection and identification of Candida glabrata in the subject's blood, a subsequent blood draw is taken directly to media that contain either no antimicrobial agents or pre-determined levels of fluconazole, itraconazole, amphotericin B, or caspofungin. […]
# C. albicans isolate = assay: as above; type: cell-based, Candida albicans; conditions: media with pre-determined levels of agent, Example 5
# Description: A blood sample is obtained from a subject suspected to be suffering from Candidemia. The blood sample obtained from the patient is subjected to a T2MR-based detection method, for example, as described above in Example 4. In this example, Candida albicans is identified as being present in the subject's blood sample within 3 h from the start of the assay.
# Based on the T2MR-based detection and identification of Candida albicans in the subject's blood, a subsequent blood draw is taken directly to media that contain either no antimicrobial agents or pre-determined levels of antimicrobial agents such as fluconazole, itraconazole, amphotericin B, and caspofungin. Aliquots are taken from these media at time intervals, and the aliquots are subjected to T2MR-based real-time PCR is performed as described, for example, in Example 19 of WO 2012/054639, to detect the expression level of the multiple drug resistance gene MDR1 as well as a housekeeping gene such as beta-actin (ACT1) as a proxy for growth of the C. albicans isolate in the media. […] A growth curve is made by plotting the T2 signal over time.
# Candida glabrata = assay: administration to the subject with Candidemia (Candida glabrata); type: in vivo, human; conditions: appropriate dose, subject with Candidemia (C. glabrata), Example 4
compound,measurement,setting,value
trimethoprim-sulfamethoxazole,antimicrobial susceptibility of the isolate,S. aureus isolate [1],sensitive
same,treatment outcome in the subject,S. aureus,treating the bacteremia
CN[C@H](CC(C)C)C(=O)N[C@H]1C(=O)N[C@@H](CC(N)=O)C(=O)N[C@H]2C(=O)N[C@H]3C(=O)N[C@H](C(=O)N[C@H](C(=O)O)c4cc(O)cc(O)c4-c4cc3ccc4O)[C@H](O)c3ccc(c(Cl)c3)Oc3cc2cc(c3O[C@@H]2O[C@H](CO)[C@@H](O)[C@H](O)[C@H]2O[C@H]2C[C@](C)(N)[C@H](O)[C@H](C)O2)Oc2ccc(cc2Cl)[C@H]1O [vancomycin],"antimicrobial susceptibility of the isolate, growth curve of T2 signal over time",S. aureus isolate [2],particularly sensitive
same,treatment outcome in the subject,S. aureus,treating the subject's bacteremia
COc1cccc(OC)c1C(=O)N[C@@H]1C(=O)N2[C@@H]1SC(C)(C)[C@@H]2C(=O)O [methicillin],"antimicrobial resistance of the isolate, based on the color of the colonies",S. aureus isolate [3],resistant
C[C@@H]1[C@H](O)[C@@H](C)/C=C/C=C/C=C/C=C/C=C/C=C/C=C/[C@H](O[C@@H]2O[C@H](C)[C@@H](O)[C@H](N)[C@@H]2O)C[C@@H]2O[C@](O)(C[C@@H](O)C[C@@H](O)[C@H](O)CC[C@@H](O)C[C@@H](O)CC(=O)O[C@H]1C)C[C@H](O)[C@H]2C(=O)O [amphotericin B],treatment outcome in the subject after switch from fluconazole,"Candida albicans; MDR1 expression elevated after fluconazole, therapy switched, Example 5",successful in treating the subject
OC(Cn1cncn1)(Cn1cncn1)c1ccc(F)cc1F [fluconazole],antimicrobial susceptibility of the isolate,Candida albicans isolate,particularly sensitive
same,"antimicrobial susceptibility of the isolate, growth curve of T2 signal over time",C. glabrata isolate,particularly sensitive
same,"antimicrobial susceptibility of the isolate, growth curve of T2 signal over time",C. albicans isolate,particularly sensitive
same,treatment outcome in the subject,"Candida albicans; appropriate dose, subject with Candidemia (C. albicans)",treating the subject's Candidemia
same,treatment outcome in the subject,Candida glabrata,treating the subject's Candidemia
